# Source: US12490760B2, “Compound and flavor-imparting composition using same” (T. HASEGAWA CO., LTD., priority 2021, dated 2025)
# Tests used:
# [1] = Detecting threshold concentration; conditions: compared with citral
# [2] = Stability in sugar-acid solution, quantified by GC/MS internal standard method; assay type: physicochemical; conditions: 0.1% in sugar-acid solution (7% granulated sugar, 0.12% citric acid); room temperature (25° C.), 8 weeks, light shielding
# Method: A stability of the present compound was evaluated by the following procedure. An aqueous solution including 7% granulated sugar and 0.12% citric acid (hereinafter, which may be referred to as a sugar-acid solution) was prepared. To this sugar-acid solution, the present invention product 1-1 was added so that the concentration was 0.1% to obtain the present invention product 3-1. As a comparative reference to the present compound, citral was added to a separately prepared sugar-acid solution so that the concentration was 0.1% to obtain the comparative product 3-1. Then, the present invention product 3-1 and the comparative product 3-1 were stored at room temperature (25° C.) for 8 weeks under light shielding. On the present invention product 3-1 and the comparative product 3-1, the present compound and citral were quantitatively analyzed by the internal standard method by using 2-chlorophenol as an internal standard substance under the following GC analysis conditions. The measurements were performed by using a GC/MS (apparatus name: GC 7890A/MSD 5975C, manufactured by Agilent Technologies Japan, Ltd.). […]
# [3] = Aroma properties: 1% ethanol solutions sniffed by panelists; conditions: 1% ethanol solution; sniffed by 5 well-trained panelists; representative comments
# Method: An aroma of the present compound was evaluated by the following procedure. A 1% ethanol solution of the present invention product 1-1 was prepared and used as the present invention product 2-1. As a comparative reference to the present compound, a 1% ethanol solution of citral was prepared and used as the comparative product 2-1, and a 1% ethanol solution of 4,8-dimethylnona-3,7-dien-2-one was prepared and used as the comparative product 2-2. 5 well-trained panelists having 10 years or more of experience sniffed at the present invention product 2-1 and the comparative products 2-1 and 2-2, and commented on felt aromas.
concentration after storage relative to the initial concentration [2],Compound,detecting threshold concentration [1],Comment (felt aromas) [3]
90%,"C=C(CCC=C(C)C)CC(C)=O [present compound, 8-methyl-4-methylenenona-7-en-2-one]",the same level as that of citral,does not have the aspect of floral aromas
completely disappeared,"CC(C)=CCCC(C)=CC=O [citral, reference compound]",,
